Where a SMILES comes first, the peptide text is derived from it. [ ]: non-standard residue; d: D form.

In test [1] the test system is spontaneously hypertensive rats (SHR). Briefly: Cardiac fibrosis in SHR, picrosirius red staining. It counts as in vivo, rat. The note with it: SHR, 1,200 ng/kg/min, 14 days. On the procedure:
(§1) Experimental animal model. All procedures were performed in accordance with the Guide for the Care and Use of Laboratory Animals published by the U.S. National Institutes of Health (NIH Publication 85 23, 1985) and approved by our Institutional Bioethics Committee. The animals were housed under the continuous professional monitoring of the Medical Veterinary staff in the animal facility of the Pontificia Universidad Católica de Chile, under the following conditions: 12-h light-dark cycle; 21° C. ambient temperature; 50% humidity; adequate ventilation; noise-free environment; and food and water ad libitum. Male spontaneously hypertensive rats (SHR, age 12 weeks) and normotensive Wistar Kyoto rats (WKY, 12 weeks age) were used. […] Systolic blood pressure (SBP), diastolic blood pressure (DBP) and body weight (BW) were measured at the end of the treatment period and the animals were then sacrificed.
Evaluation of cardiac fibrosis. […] In hypertense SHR increased picrosirius red staining was detected in the hearts, indicating the presence of interstitial collagen, a marker of cardiac fibrosis.

Test [2] relates to cardiac myocytes isolated from neonatal Sprague-Dawley rat ventricles. Briefly: Norepinephrine-induced cardiomyocyte hypertrophy, western blot of β-MHC and ANP. The class given is cell-based. To be noted: 1, 10 or 100 μM peptide, 10 μM norepinephrine. As for the experimental part: Cardiac myocytes were isolated from neonatal Sprague-Dawley rat ventricles. Cardiac myocytes were plated at 70% final density in gelatin-coated wells (12-well plates) or in 60-mm Petri dishes and maintained at 37° C. in a humidified atmosphere of 5% CO2/95% air for 24 h in Dulbecco's Modified Eagle's medium [(DMEM)/M199](4:1) containing 10% fetal bovine serum and 5% fetal calf serum. Serum was withdrawn 24 h before preincubation with 1, 10 or 100 μM retro-inverse angiotensin-(1-9) for 1 h; then, 10 μM norepinephrine (Sigma, St Louis, Missouri, USA) were added and the cultures were incubated for 24 h. Then cells were washed with PBS at 4° C. and then cells were lysed with 50 μL of RIPA lysis buffer (Tris-HCl 10 mM pH 7.4, EDTA 5 mM, NaCl 50 mM, deoxycholic acid 1%, Triton X-100 1% v/v) supplemented with phosphatase and protease inhibitors (Roche). After centrifugation at 12,000 r.p.m. for 15 min at 4° C., the supernatat was recovered; total protein content was determined by using Bradford (BioRad protein assay, BioRad, Hercules, CA, USA). Proteins were denatured in SDS-PAGE 4× buffer and resolved in 12% PAGE-SDS. After electrotransference, beta-myosin heavy chain (β-MHC) and atrial natriuretic peptide (ANP) were used as hypertrophic markers. β-tubulin was used as loading control. As expected, norepinephrine 10 μM for […], a cardiomyocyte hypertrophy inducer, triggered β-MHC and ANP increase (FIG. 3).
In general terms: Immunoblotting shows a protein as a band on a membrane.

Test [3] relates to spontaneously hypertensive rats (SHR). Put plainly: β-MHC protein level in left ventricle of SHR (cardiac hypertrophy). It counts as in vivo, rat. To be noted: SHR, 1,200 ng/kg/min, 14 days, left ventricle western blot. On the procedure:
as §1
Measurement of β-MHC protein level to assess cardiac hypertrophy. β-MHC protein levels were determined by Western blotting. […] Digital images obtained from the photographic films were analyzed by densitometry using Image J software (NIH, USA). […]

Test [4] shares this test system. Put plainly: Cardiac hypertrophy by morphometry analysis in SHR. It counts as in vivo, rat. To be noted: SHR, 1,200 ng/kg/min, 14 days, left ventricle. On the procedure:
as §1
Measurement of cardiac hypertrophy by morphometry analysis. […] Cardiomyocyte size (area and perimeter) was determined as described by Ocaranza et al. (J. Hypertens. 2010; 28:1054-1064). […]

For `CC[C@@H](C)[C@@H](NC(=O)[C@@H](Cc1c[nH]cn1)NC(=O)[C@H]1CCCN1C(=O)[C@@H](Cc1ccccc1)NC(=O)[C@H](N)Cc1c[nH]cn1)C(=O)N[C@H](Cc1ccc(O)cc1)C(=O)N[C@@H](C(=O)N[C@H](CCCNC(=N)N)C(=O)N[C@H](CC(=O)O)C(=O)O)C(C)C` [retro-inverse angiotensin-(1-9), NH2-^DH^DF^DP^DH^DI^DY^DV^DR^DD-COOH] (H-[dH][dF][dP][dH][dI][dY][dV][dR][dD]-OH), the “accumulation of collagen in cardiac tissue” value in test [1] is “completely revert”. In test [2], the “increase of ANP induced by norepinephrine” value is “inhibited, in a dose response manner” and the “increase of β-MHC induced by norepinephrine” value was “inhibited, in a dose response manner”. For the same molecule, in test [3], the “increase in β-MHC induced by hypertension” value was “reversed the increase”. In addition, in test [4], the “increase of area of cardiomyocytes induced by hypertension” value is listed as “reversed the increase” and the “increase of perimeter of cardiomyocytes induced by hypertension” value is recorded as “reversed the increase”.

The values above are taken from patent US20250206779A1, “ANGIOTENSIN-(1-9) ANALOGUE BASED ON D AMINO ACIDS, PHARMACEUTICAL COMPOSITIONS AND USES THEREOF” (UNIVERSIDAD DE CHILE, priority 2021, published 2025).
